Test results: patent publication US6516214B1, “Detection of stroke events using diffuse optical tomography” (The General Hospital Corporation, priority 2000, dated 2003)

Assay: Monitoring cerebral blood flow in an adult human by DOT after an indocyanine green bolus
Type: in vivo
From the text: A 100 mW, 808 nm laser diode coupled to a 1 mm diameter fused silica fiber was used to deliver light to an adult human head. Four diode detectors were coupled to the scalp via 3 mm diameter plastic fibers. The collecting fibers were positioned 1, 2, 3, and 4 cm from the emitting fiber. These four separations were chosen to discriminate between scalp signals and […]. Measurements made at 1 and 2 cm separations were sensitive to changes in the optical properties of only the skull and scalp. On the other hand, measurements made at 3 and 4 cm separations were sensitive to changes in the optical properties of the brain, skull, and scalp. The remitted intensity at the four positions was sampled at 4 Hz. Baseline data was collected for 10 seconds, followed by the bolus injection. The bolus consisted of a 2 ml saline solution of 40 mg of indocyanine green injected into a vein in the arm of the volunteer. This injection was immediately followed by a 10 ml saline flush.
The data is summarized in the graph of FIG. 15, showing the attenuation of the optical signal caused by passing of the bolus of indocyanine green through the brain of the adult human volunteer. […] The small increases in each signal at about 34 seconds resulted from the re-circulation of the indocyanine green bolus.

- delay of the drop in the signals relative to 3 and 4 cm separations (1 and 2 cm optode separations (scalp and skull only)): about 2 seconds
- time following injection of the dye bolus at which the signal dropped significantly (3 and 4 cm optode separations, 40 mg in 2 ml saline i.v. in the arm, 808 nm): 20 s
- time of small signal increases from re-circulation of the bolus (each signal, all separations): about 34 seconds
- concentration of second passage bolus, times smaller than the first passage bolus (re-circulation): about 10 times
SMILES: CC1(C)C(/C=C/C=C/C=C/C=C2\N(CCCCS(=O)(=O)O)c3ccc4ccccc4c3C2(C)C)=[N+](CCCCS(=O)(=O)[O-])c2ccc3ccccc3c21 [indocyanine green]
